Reference: US8258295B2, “Triazine derivatives, compositions containing such derivatives, and methods of treatment of cancer and autoimmune diseases using such derivatives” (Prometic Biosciences Inc., priority 2007, dated 2012)

What was measured:
[1] = tested on: experimental autoimmune encephalomyelitis (EAE); assay: PLP-induced experimental autoimmune encephalomyelitis (EAE) in SJL mice; type: in vivo
Description: The PLP-induced experimental autoimmune encephalomyelitis (EAE) mouse model serves as a model of multiple sclerosis. On day O, SJL mice were immunized with 75 μg of PLP (139-151) emulsified in Freund's complete adjuvant (200 μl emulsion per mouse s.c. divided among four sites) and with pertussis toxin (200 ng, i.p.). The i.p. injection of pertussis toxin was repeated on day 2. Compound V was administered orally once a day at 25 mg/kg and 50 mg/kg, starting at day 0 and until 30 days post immunization, six times a week. […] Clinical grading of symptoms was carried out according to the following scale: 0=no illness, 1=flaccid tail, 2=moderate paraparesis, 3=severe paraparesis, 4=moribound state, 5=death.

DNBS-induced colitis = DNBS-induced colitis in CD1 mice; type: in vivo; details: vs vehicle
Description: The 2,4-dinitrobenzene sulfonic acid (DNBS) induced experimental colitis mouse model serves as a model of inflammatory bowel disease. On day 0, CD1 mice were sensitized with DNBS by intra-colinic instillation of 0.1 ml of an ethanolic solution (30%) of DNBS (40 mg/ml). Compound V was administered orally once a day for four consecutive days at 25 mg/kg and 50 mg/kg, starting one hour after sensitization with DNBS. On the fourth day, mice were sacrificed and 8 cm of the distal colon was collected and opened longitudinally for macroscopic evaluation.

PC-3 cells = assay: In vitro PC-3 cell adhesion to extracellular matrix components; type: cell-based, human; details: different concentrations
Description: An in vitro cell adhesion assay was used to assess the effect of the compounds on cancer cell adhesion. Microtiter 96-well plates were coated for 1 hr at room temperature with […] of adhesive ligands previously diluted to 5 μg/ml for laminin, 10 μg/ml for MATRIGEL™ basement membrane matrix, or 10 μg/ml for collagen in PBS. The wells were blocked with a solution of 1% BSA in PBS (100 μl/well) for 1 hr at 37° C. Subconfluent cultures of PC-3 cells were incubated with a 5 μM solution of calcein-AM for 30 min at 37° C., and then free calcein-AM was washed out (30 min) by incubation of the PC-3 cells in media without calcein-AM. Calcein-AM-labeled cells were trypsinized, washed, and resuspended in adhesion buffer (RPMI-1640, 10% FBS supplemented with 1 mM of MgCl2). Labeled PC-3 cells were preincubated in absence or presence of compounds for 30 min and then a final volume of 100 μl of preincubated cells were allowed to attach at 37° C. in a humidified incubator for 15 min, 30 min, or 60 min at 37° C. Nonattached cells were removed by two washes with PBS and attached cells were lysed with 100 μl of a 1% Triton X-100 solution in PBS. Plates were read on a Tecan GENios Plus fluorescent reader with an excitation wavelength of 485 nm and an emission wavelength of 530 nm. The number of attached cells was calculated based upon standard curves. Nonspecific cell attachment (attachment to wells coated with BSA) was always less than 5%.

NCCCCCNc1nc(NCCc2ccc(O)cc2)nc(Nc2ccc(F)cc2)n1 [Compound V]
activity on clinical signs of EAE ([1]; oral 50 mg/kg, vs vehicle): significant activity | appearance of clinical signs of EAE ([1]; oral once a day, 25 mg/kg and 50 mg/kg, until 30 days, FIG. 23): reduces in a dose dependent manner the appearance of signs of EAE | DNBS-induced macroscopic damage area of the colon mucosal tissue (DNBS-induced colitis; oral 25 mg/kg and 50 mg/kg, FIG. 22): strong and significant decrease | body weight (DNBS-induced colitis; oral once a day for four days, 25 mg/kg and 50 mg/kg): weak but significant increase of body weight | PC-3 cell adhesion to laminin (PC-3 cells; FIG. 1A): inhibits PC-3 cells adhesion in a dose dependent fashion | PC-3 cell adhesion to MATRIGEL basement membrane matrix (PC-3 cells; FIG. 1B): inhibits PC-3 cells adhesion in a dose dependent fashion | PC-3 cell adhesion to collagen (PC-3 cells; FIG. 1C): inhibits PC-3 cells adhesion in a dose dependent fashion
